Test results taken from patent US9238003B2, “Extended or continuous wear silicone hydrogel contact lenses for the extended release of comfort molecules” (AUBURN UNIVERSITY, priority 2005, dated 2016).

Tests used:
Assay type in all cases: physicochemical
[1] = Heat stability of HA solutions; conditions: heated 60 minutes
Procedure: The effect of heat conditions on HA solution was also assessed. In 2 mL microcentrifuge vials, 1 mL samples of HA solutions of 500 ng/mL and 10 μg/mL were heated to 105° C. and 121EC respectively. The 500 ng/mL samples were heated for 0 minutes, 5 minutes, 30 minutes and 60 minutes while the 10 μg/mL samples were heated for 15 minutes, 30 minutes, 45 minutes and 60 minutes. The sample vials were quenched in a room temperature water bath and assayed with an ELISA assay kit for HA.

[2] = Dynamic release of HA from hydrogel lenses in lacrimal solution (ELISA); conditions: largest HA, 1 million daltons; 6.5 mg HA per g PM
Procedure: Dynamic Release Studies. Dynamic release studies were conducted to measure how long a therapeutic contact lens would release drug in vitro under conditions similar to the eye surface. The studies are also able to reveal the order of the release.
The protocol for a kinetic release study begins with the synthesis of hydrogel as described previously. As each study was conducted in triplicate, three lenses were made of every HA-prepolymer formulation. A lacrimal solution isotonic with human tears (6.78 g/L NaCl, 2.18 g/L NaHCO3, 1.38 g/L Kcl, 0.084 g/L CaCl2 2H2O, pH 8) was pipetted into 50 mL centrifugation tubes, 20 mL per tube. Each lens was placed in a tube and incubated at 35EC on an orbital shaker. After measured time intervals, the lenses were extracted and deposited into fresh lacrimal solution. The lacrimal solution with HA released in it was stored at 4° C. until essayed. After data had been collected for 3-5 days, an ELISA assay for HA was used to determine the concentration in each release sample. If necessary, the samples were diluted to bring into the assay detection range.
Cumulative release curves were plotted for each lens formulation, and the data was used to calculate the rate of diffusion of HA from the hydrogel. The transport of the drug from the lens placed in a fluid environment was mathematically modeled. […]

[3] = Dynamic HPMC release studies, perfect sink (Sotax dissolution apparatus, DI water); conditions: soaked LFB lenses
Procedure: Dynamic HPMC Release Studies. Dynamic release studies were conducted to measure how long each therapeutic contact lens would release HPMC in-vitro. The studies were conducted with the perfect sink model in order to sustain the greatest driving force, using a Sotax Dissolution Apparatus (Horsham, Pa.), in which loaded lenses were placed in 250 mL of DI water (pH 6.4). Separate experiments were conducted to confirm the perfect sink volume.
In the Sotax apparatus, the release media was stirred at a constant rate of 30 rpm by paddles and kept at a constant temperature of 34° C. The average weight of the lenses out of the mold was 35 mg±6 mg. HPMC concentration in the release medium was determined via HPLC (Shimadzu, Japan) equipped with a refractive index detector. The mobile phase was deionized water, and a flow rate of 1 mL/min was maintained by the HPLC. A standard curve of refractive index and known HPLC concentration was established. Percent mass release curves were plotted for each lens.

[4] = Loading of HPMC into LFB lenses by soaking in aqueous HPMC solution
Source text: The first step of this work was to assess the feasibility of loading HPMC directly into a lens. […] The mass uptake of various HPMC solutions is presented in Table 2 (showing mass loading of various HPMC concentrations and molecular weights).

[5] = Pre-polymer loading of HPMC into LFB lens formulation
Procedure: Synthesis of LFB Lenses and Synthesis of Imprinted LFB Lenses. Lenses were produced by mixing individual monomers of the LFB formulation. The monomers were kept refrigerated at 4° C. A typical formulation consisted of 1300 mg of Betacon macromer, 1300 mg of TRIS, and 1300 mg of DMA (referred to as the base formulation). The base formulation was equal parts of these monomers and used to calculate ratios of other components. Equal weights of EGDMA and PEG200DMA were added to a desired concentration anywhere between 0 and 10 wt % of the base formulation Imprinting monomers were then added between 0 and 10 wt % of the base formulation. Darocur 1173 was added to the solution to a concentration of 1% of the base formulation. The samples were thoroughly mixed by sonication for 30 minutes and then the comfort agent was added to the desired concentration. The formulations were exposed to high shear mixing for up to 1 minute and sonicated for at least 15 minutes to remove any dissolved air or air bubbles. After the comfort agent was added, the sample was sonicated and mixed until evenly dispersed.
A fixed volume was pipetted into polypropylene (PP) lens molds provided by CIBA Vision, Inc. The mass of formulation pipetted varied between 100 to 200 mg depending on the concentration of comfort agent. […]

| change in signal strength (heat degradation of large HA) ([1]; 500 ng/mL solution) [%] | change in concentration (heat degradation of large HA) ([1]; 10 μg/mL solution) [%] | time HA was diffusing out of the lens [2] | Release Time After 7 Day Soak [3] | release time from soaked lenses [3] | Mass Loaded from Drug Solutions ([4]; 1 Day Soak, 0.1%) [μg/lens] | Mass Loaded from Drug Solutions ([4]; 1 Day Soak, 1%) [μg/lens] | Mass Loaded from Drug Solutions ([4]; 1 Day Soak, 10%) [μg/lens] | Mass Loaded from Drug Solutions ([4]; 2 Day Soak, 0.1%) [μg/lens] | Mass Loaded from Drug Solutions ([4]; 2 Day Soak, 1%) [μg/lens] | Mass Loaded from Drug Solutions ([4]; 2 Day Soak, 10%) [μg/lens] | Mass Loaded from Drug Solutions ([4]; 7 Day Soak, 0.1%) [μg/lens] | Mass Loaded from Drug Solutions ([4]; 7 Day Soak, 1%) [μg/lens] | Mass Loaded from Drug Solutions ([4]; 7 Day Soak, 10%) [μg/lens] | loading of HPMC limited by thickness ([5]; 100 μm swollen lens thickness) | maximum mass of HPMC loaded (pre-polymer loaded) ([5]; 350 μm thick lens) | loading after soaking in a solution for a week ([4]; any solution concentration) [μg/lens] | Substance |
| --- | --- | --- | --- | --- | --- | --- | --- | --- | --- | --- | --- | --- | --- | --- | --- | --- | --- |
| 50 | 30 | up to 3 days | – | – | – | – | – | – | – | – | – | – | – | – | – | – | Hyaluronic Acid [HA] |
| – | – | – | 30 min | less than 30 minutes | 0.32 | 4.1 | 5.4 | 0.21 | 3.2 | 6.9 | 1.2 | 5.7 | 2.9 | – | – | – | hydroxypropyl methylcellulose [HPMC 10 KDa] |
| – | – | – | None | – | 0.09 | 0.07 | 0.4 | 0.09 | 0.65 | 0 | 0.01 | 0.48 | 0 | – | – | – | hydroxypropyl methylcellulose [HPMC 90 KDa] |
| – | – | – | None | – | 0.001 | 0.003 | 0.004 | 0.08 | 0.04 | 0.01 | 0.006 | 0.2 | 0.1 | ~1,000 μg/lens | ~8,000 μg/lens | ≤ 0.2 | hydroxypropyl methylcellulose [HPMC 120 KDa] |
